Legend:
[1] = Stability in human plasma/serum (radiochemical purity by HPLC); type: in vitro ADME; settings: 37 °C, incubation time 0 min, n = 1
PSMA (LNCaP cells) = biological target: T1, PSMA (LNCaP cells) (Homo sapiens, UniProt Q04609); experiment: Competition assay on LNCaP cells against [68Ga]Ga-PSMA-617; type: binding; settings: for IC50: competition with 5 nM [68Ga]Ga-PSMA-617, 60 min, 37 °C
T1 construct: host or cells: LNCaP
Protocol: The competition assay, LNCaP cells were seeded into poly-L-lysine coated 24-well plates in amount of 0.5 × 10^6 cells/well 24 h prior to the competition assay. The tested ligands (^68Ga-P15, ^68Ga-P16 and ^68Ga-P19) were added to the wells in concentrations 0, 1, 5, 10, 25, 50, 100, 500, 1000 and 5000 nM in triplicates. Afterwards, ^68Ga-labelled PSMA-617 was added to each well so its final concentration was 5 nM. All the ligands in this assay were dissolved in the buffer containing 25 mM Tris-HCl, 5.4 mM KCl, 1.8 mM CaCl2, 0.8 mM MgSO4, 5 mM glucose, and 140 mM NaCl in H2O (pH adjusted to 7.4). ^68Ga-PSMA-617 was incubated on cells for 60 min at 37 °C followed by its removal and washing the cells with PBS. Finally, the cells were disintegrated using 0.1 M NaOH and transferred into the scintillation vials for the gamma counting. The IC50 values were calculated by fitting the data using a nonlinear regression algorithm (GraphPad PRISM 7.0) and the data were assessed by t-test.

[2] = Radiochemical stability in physiological pH water environment; type: physicochemical; settings: radiochemical purity, pH 7, 37 °C, n = 1
Protocol: Quality control, i.e. radiochemical purity, of the ^68Ga-labelled PSMA inhibitors was evaluated by analytical high performance liquid chromatography (HPLC; Dionex UltiMate 3000, Thermo Scientific, Waltham, Massachusetts, USA) using the following equipment: ACE 3 C18 column; 150 × 3 mm, 3 μm (Advanced Chromatography Technologies Ltd, Aberdeen, UK), with gradient elution A: H2O/acetonitrile (ACN); B:0.1% trifluoroacetic acid (TFA)/H2O: 0–3 min, 0% ACN; 3–10 min, 0 − 50% ACN; 10–13 min, 50 − 80% ACN; 13–15 min, 80–0% ACN, for 15 min at a flow rate of 1 mL/min. Radiometric detection was performed using a GABI Star radiodetector (Raytest GmbH, Straubenhardt, Germany) and for chromatogram quantification Chromatography Data System (CDS) - Chromeleon software (Thermo Scientific, USA) was used. The actual sample injection was performed using a Hamilton microinjector (Hamilton, USA).
Radiochemical stability in a physiological pH water environment was determined as follows: 100 µL of acetate buffer (1.1 mol/L) was added to the labelled preparation and the pH was then checked with a pH indicator paper to be 7. The mixture was further incubated at 37 °C and after 30, 60 and 120 min, 10 µL aliquot was used for HPLC analysis of radiochemical purity.

[3] = tested on: LNCaP tumour-bearing mice; experiment: Ex vivo biodistribution in LNCaP tumour-bearing mice; design: species or system SCID mice
Protocol: The eight-week-old male SCID mice (Charles River, Massachusetts, USA) were used to generate the mouse tumour model. The implantation of 10 million LNCaP cells (ATCC, Virginia, USA) per mouse in a 1:1 mixture of Matrigel matrix (Corning, New York, USA) was performed subcutaneously behind the right shoulder of the mouse. Tumours of adequate size, representing a volume of 100–300 mm³, were observed after five to six weeks.
Ex vivo biodistribution of PSMA inhibitors in tumor-bearing mice was conducted as follows. Concisely, 30 µL of acetate buffer was added to the each ⁶⁸Ga -labelled inhibitor, namely: ⁶⁸Ga-P15, ⁶⁸Ga-P16, ⁶⁸Ga-P19, and ⁶⁸Ga-PSMA-617 to achieve physiological pH. Mice were r.o. injected with 100 µL of labelled inhibitor (2 MBq, approximately 0.5 µg of the inhibitor). Animals were divided into two groups for biodistribution studies at 1 and 2 h after administration of the respective ^68Ga-labelled PSMA inhibitor. The animals were sacrificed and autopsied after euthanasia, and organs: spleen, pancreas, stomach, intestine, kidney, liver, heart, lung, muscle, bone, and tumour were collected in scintillation vials. The vials containing the samples were weighed and measured in a Wizard2 gamma counter (PerkinElmer, USA). The measured values were then adjusted for radionuclide decay and expressed as a percentage of administered dose per gram of organ (%ID/g). The NanoScan® hybrid Positron Emission Tomography/Computed Tomography (PET/CT) machine (Mediso, Budapest, Hungary) was used for in vivo imaging specifically whole-body helical PET/CT scans. Imaging settings were: single field of view (FOV) PET scans (98.5 mm) which took 10 min for each mouse and helical CT scans (50 kVp/980 µA, 720 projections) both took place one hour after the administration. Each mouse received an injection of approximately 10 MBq of tested radiopharmaceutical. To prevent the mice’s eyes from drying out during anaesthesia eye ointment (Ophthalmo-Azulen, Zentiva, CR) was applied. Image reconstruction was performed using Mediso Tera-Tomo 3D PET iterative reconstruction (Mediso Medical Imaging Systems, Budapest, Hungary). Both reconstruction and data evaluation were performed in Mediso InterView FUSION software (Mediso Medical Imaging Systems, Budapest, Hungary) (Mediso, Budapest, Hungary). Final images were normalised to injected activity and animal weight. All organs with radiopharmaceutical accumulation were roughly delineated on the images, while their SUVmax value was recorded. The SUV41% (Standardized Uptake Value 41%) was then calculated as 41% of each SUVmax value of given hotspot and the ROI was delineated based on this value (Boellaard et al. [2015]). All images were exported in maximum intensity projection (MIP) mode. The results from the ex vivo biodistribution study were subjected to statistical analysis, namely unpaired Student’s t-test (Microsoft Excel 365, USA).

[4] = Octanol/water partition coefficient (log P); type: physicochemical; settings: octanol/PBS; mean ± SD n = 6
Protocol: Octanol/water partition coefficient (P) was determined as described before (Petrik et al. [2012]). Briefly, 600 µL PBS was added to the total volume of the ⁶⁸Ga-P15. New tube was filled with 50 µL of the above-mentioned solution, 500 µL octanol and 450 µL PBS. Five more samples were prepared in this way and then placed on an orbital shaker for 20 min. The samples were then centrifuged at 15,000 rpm for 1 min. After centrifugation, two samples were taken from each tube, one from the octanol and the other from the aqueous phase. The radioactivity of these samples was measured using an automated gamma computer and the formula log P = log(Aoctanol/AH2O) was employed to calculate log P. The same procedure was applied when determining the partition coefficient of ⁶⁸Ga-P16, ⁶⁸Ga-P19, and ⁶⁸Ga-PSMA-617.

[5] = one-hour p.i., mean ± SD, n = 4

T1 sequence (Q04609 whole entry): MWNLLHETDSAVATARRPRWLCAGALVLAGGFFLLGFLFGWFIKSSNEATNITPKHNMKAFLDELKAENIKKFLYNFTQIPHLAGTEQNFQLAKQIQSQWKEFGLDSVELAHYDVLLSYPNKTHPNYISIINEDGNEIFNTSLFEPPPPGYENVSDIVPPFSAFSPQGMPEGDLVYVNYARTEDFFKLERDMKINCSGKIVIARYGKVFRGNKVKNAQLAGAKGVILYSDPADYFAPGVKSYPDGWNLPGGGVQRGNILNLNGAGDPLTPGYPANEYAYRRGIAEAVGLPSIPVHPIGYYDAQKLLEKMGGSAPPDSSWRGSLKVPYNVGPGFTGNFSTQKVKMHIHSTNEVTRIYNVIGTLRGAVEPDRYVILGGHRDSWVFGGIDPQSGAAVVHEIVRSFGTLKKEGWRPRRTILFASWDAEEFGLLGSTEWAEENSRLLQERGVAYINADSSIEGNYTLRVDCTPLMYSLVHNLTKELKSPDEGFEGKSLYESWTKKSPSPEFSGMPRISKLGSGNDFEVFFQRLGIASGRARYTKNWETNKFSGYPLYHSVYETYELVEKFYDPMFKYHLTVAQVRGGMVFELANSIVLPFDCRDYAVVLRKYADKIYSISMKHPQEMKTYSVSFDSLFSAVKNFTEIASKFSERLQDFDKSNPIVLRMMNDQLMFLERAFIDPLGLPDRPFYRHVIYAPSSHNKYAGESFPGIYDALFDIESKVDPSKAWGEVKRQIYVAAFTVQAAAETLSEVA

Compound	Stability in human serum (%) [1] [%]	IC50 (PSMA (LNCaP cells)) [nM]	Stability in Physiological pH (%) ([2]; incubation time 0 min)	Stability in Physiological pH (%) ([2]; incubation time 30 min)	Stability in Physiological pH (%) ([2]; incubation time 60 min)	Stability in Physiological pH (%) ([2]; incubation time 120 min)	tumour-to-muscle ratio of [68Ga]Ga-PSMA-617 relative to that of the inhibitor ([3]; one-hour p.i.)	Accumulation in the tumour ([3]; two-hours p.i., n = 4)	Log P [4]	further results
O=C([O-])CN1CCN(CC(=O)[O-])CCN(CC(=O)N[C@H]2CC[C@H](NC(=O)[C@@H](Cc3ccc4ccccc4c3)NC(=O)CC[C@H](NC(=O)N[C@@H](CCC(=O)O)C(=O)O)C(=O)O)CC2)CCN(CC(=O)[O-])CC1.[68Ga+3] [[^68Ga]Ga-P15]	99.0	97.3	99.0	98.8	98.7	99.2	~7.5 times	0.5%	–3,71 ± 0,14	IC50 fold higher than that of [68Ga]Ga-P16 (PSMA (LNCaP cells); competition assay): ~25 fold; tumour-to-muscle ratio, fold lower than [68Ga]Ga-PSMA-617 ([3]; Fig. 5): more than 7 fold; tumour uptake, fold lower than [68Ga]Ga-P16 ([3]; one-hour p.i.): more than 5 fold; tumour uptake, fold lower than [68Ga]Ga-P16 ([3]; two-hours p.i.): up to 10 fold
O=C([O-])CN1CCN(CC(=O)[O-])CCN(CC(=O)N[C@H]2CC[C@H](NC(=O)[C@H](Cc3ccc4ccccc4c3)NC(=O)CC[C@H](NC(=O)N[C@@H](CCC(=O)O)C(=O)O)C(=O)O)CC2)CCN(CC(=O)[O-])CC1.[68Ga+3] [[^68Ga]Ga-P16]	99.0	4	99.3	99.1	99.3	99.3	more than twice		–3,07 ± 0,87	Accumulation in the spleen ([3]; one-hour p.i., n = 4): 7.7 % ID/g; Accumulation in the spleen ([3]; two-hours p.i., n = 4): 9.6 % ID/g
O=C([O-])CN1CCN(CC(=O)[O-])CCN(CC(=O)NCc2ccc(C(=O)N[C@H](C(=O)NCCCC[C@H](NC(=O)N[C@@H](CCC(=O)O)C(=O)O)C(=O)O)C(c3ccccc3)c3ccccc3)cc2)CCN(CC(=O)[O-])CC1.[68Ga+3] [[^68Ga]Ga-P19]	99.0	95.6	99.8	99.5	99.5	99.6	more than 1.6 times	2.0 % ID/g	–3,41 ± 0,13	tumour-to-blood ratio, times higher than [68Ga]Ga-PSMA-617 ([3]; one hour after administration): more than 1.5 times; level in the kidney, times lower compared to [68Ga]Ga-PSMA-617 ([3]; one hour after administration, p < 0.05): up to 7 times; tumour-to-blood ratio [3, 5]: 9.0 ± 2.3; tumour-to-kidney ratio [3, 5]: 0.85 ± 0.36; Accumulation in the tumour ([3]; one-hour p.i., n = 4): 3.5 % ID/g; tumour-to-kidney ratio ([3]; two hours post injection, mean ± SD, n = 4): 0.85 ± 0.02
